Calls of active or inactive are those of the source.
How the values were obtained:
HL-60 [1] = assay: Induction of apoptosis in human HL60 cells assessed as increase in Bax protein level after 24 hrs by Western blotting; type: functional, cell-based
HL-60 [2] = assay: Induction of apoptosis in human HL60 cells assessed as formation of apoptotic body at 10 uM after 24 hrs by fluorescence microscopic analysis; type: functional, cell-based
HL-60 [3] = assay: Induction of apoptosis in human HL60 cells assessed as formation of cell shrinkage at 10 uM after 24 hrs by fluorescence microscopic analysis; type: functional, cell-based
HL-60 [4] = assay: Induction of apoptosis in human HL60 cells assessed as increase of ROS production using H2DCFDA after 3 hrs by flow cytometry in presence of N-acetylcysteine; type: functional, cell-based
HL-60 [5] = assay: Cell cycle arrest in human HL60 cells assessed as accumulation at G2/M phase at 10 uM after 24 hrs using propidium iodide staining by flow cytometry; type: functional, cell-based
HL-60 [6] = assay: Induction of apoptosis in human HL60 cells assessed as decrease in Bcl-2 protein level at 5 to 10 uM after 24 hrs by Western blotting; type: functional, cell-based
HL-60 [7] = assay: Cell cycle arrest in human HL60 cells assessed as accumulation at sub-G1 phase at 5 uM after 12 hrs using propidium iodide staining by flow cytometry (reference value: 5.2%); type: functional
HL-60 [8] = assay: Induction of apoptosis in human HL60 cells assessed as increase of caspase-3-mediated Ac-DEVD-pNA cleavage at 10 uM after 12 hrs; type: functional, cell-based
HL-60 [9] = assay: Induction of apoptosis in human HL60 cells assessed as increase of caspase-3-mediated Ac-DEVD-pNA cleavage at 10 uM after >12 hrs; type: functional, cell-based
HL-60 [10] = assay: Cell cycle arrest in human HL60 cells assessed as accumulation at sub-G1 phase at 10 uM after 24 hrs using propidium iodide staining by flow cytometry (reference value: 6.6%); type: functional
HL-60 [11] = assay: Cytotoxicity against human HL60 cells after 24 hrs by MTT assay; type: functional, cell-based
HL-60 [12] = assay: Cell cycle arrest in human HL60 cells assessed as accumulation at sub-G1 phase at 5 to 10 uM using propidium iodide staining by flow cytometry; type: functional, cell-based; settings: TDE = time-dependent effect
HL-60 [13] = assay: Induction of apoptosis in human HL60 cells assessed as loss of mitochondrial membrane potential using CMTMRos after 24 hrs by flow cytometry; type: functional, cell-based
HL-60 [14] = assay: Cell cycle arrest in human HL60 cells assessed as accumulation at sub-G1 phase after 12 to 24 hrs using propidium iodide staining by flow cytometry; type: functional, cell-based
HL-60 [15] = assay: Induction of apoptosis in human HL60 cells assessed as formation of chromatin condensation at 10 uM after 24 hrs by Hoechst 33342 and propidium iodide staining; type: functional, cell-based
HL-60 [16] = assay: Induction of apoptosis in human HL60 cells assessed as increase in Bak protein level after 24 hrs by Western blotting; type: functional, cell-based
HL-60 [17] = assay: Induction of apoptosis in human HL60 cells assessed as increase of ROS production using H2DCFDA after 3 hrs by flow cytometry; type: functional, cell-based
HL-60 [18] = assay: Cell cycle arrest in human HL60 cells assessed as accumulation at sub-G1 phase at 10 uM after 12 hrs using propidium iodide staining by flow cytometry (reference value: 5.2%); type: functional
HL-60 [19] = assay: Cell cycle arrest in human HL60 cells assessed as accumulation at G0/G1 phase at 10 uM after 24 hrs using propidium iodide staining by flow cytometry; type: functional, cell-based
HL-60 [20] = assay: Induction of apoptosis in human HL60 cells assessed as increase in cytochrome c release from mitochondria to cytosol after 24 hrs by Western blotting; type: functional, cell-based
HL-60 [21] = assay: Induction of apoptosis in human HL60 cells assessed as formation of membrane blebbing at 10 uM after 24 hrs by fluorescence microscopic analysis; type: functional, cell-based
HL-60 [22] = assay: Cell cycle arrest in human HL60 cells assessed as accumulation at sub-G1 phase at 5 uM after 24 hrs using propidium iodide staining by flow cytometry (reference value: 6.6%); type: functional
HL-60 [23] = assay: Cell cycle arrest in human HL60 cells assessed as accumulation at sub-G1 phase at 10 uM after 24 hrs using propidium iodide staining by flow cytometry in presence of N-acetylcysteine; type: functional

Cc1cc(O)c2c(c1)C(=O)C=CC2=O [RAMENTACEONE]
27.5%: Activity (HL-60 [10])
8.75 µM: IC50 (HL-60 [11]; HL-60, 24 h)
active: Activity (HL-60 [1]) Dose-dependent effect | Activity (HL-60 [2]) | Activity (HL-60 [3]) | Activity (HL-60 [5]) | Activity (HL-60 [6]) | Activity (HL-60 [8]) | Activity (HL-60 [11]) Dose-dependent effect | Activity (HL-60 [12]) tde | Activity (HL-60 [13]) Dose-dependent effect | Activity (HL-60 [14]) Dose-dependent effect | Activity (HL-60 [15]) | Activity (HL-60 [16]) Dose-dependent effect | Activity (HL-60 [17]) Dose-dependent effect | Activity (HL-60 [19]) | Activity (HL-60 [20]) Dose-dependent effect | Activity (HL-60 [21])
inactive: Activity (HL-60 [4]) | Activity (HL-60 [9])
12.3%: Activity (HL-60 [23])
17.1%: Activity (HL-60 [18])
12.6%: Activity (HL-60 [22])
10.3%: Activity (HL-60 [7])

Source: ChEMBL document CHEMBL1949608, “Induction of apoptosis in HL-60 cells through the ROS-mediated mitochondrial pathway by ramentaceone from Drosera aliciae” (J Nat Prod, 2012)
